Legend:
healthy mouse = experiment: Cytokine profile and routes of administration in healthy mouse (Example 6); details: healthy mice
[1] = system: murine air pouch model of inflammation; experiment: Murine air pouch model of inflammation, LPS induction (Example 2); assay type: in vivo, C57BL/6 mice
Experimental: This example provides the results of investigating DA to modulate immune response in a murine air pouch model of inflammation. […] What was measured was infiltrating cell counts with air pouch exudates, IL-6 levels in air pouch exudates by an ELISA assay (R&D Systems Cat. No. M6000B), and multiple cytokine analysis (Mouse 32Plex Kit MilliporeSigma Cat. No. MCYTMAG70PMX32BK).
Duarte et al., Current Protocols in Pharmacology, 5.6.1-5.6.8 Mar. 2012, describes “The subcutaneous air pouch is an in vivo model that can be used to study acute and chronic inflammation, the resolution of the inflammatory response, and the oxidative stress response. Injection of irritants into an air pouch in rats or mice induces an inflammatory response that can be quantified by the volume of exudate produced, the infiltration of cells, and the release of inflammatory mediators. The model presented in this unit has been extensively used to identify potential anti-inflammatory drugs.” It can be used to study localized inflammation without systemic effects. But in this case the drug was administered orally, by gavage BID.
Test administration was 5 ml/kg body weight BID dosing with 8 hour intervals. The air pouch was created in each test BL6 mouse by sc injection of 1.5 ml/mouse of sterile air on day 0 and 1.5 ml/mouse of sterile air on day 3. Compounds (or control distilled water) were administered BID on day −2. LPS (0.75 mg/animal in 1 ml endotoxin free PBS) was administered at hour 0 or one hour after dosing with test compounds. Plasma samples were collected at termination and exudates of the air pouches for all groups. Cell count analysis and IL-6 assays were conducted at the animal facility and plasma and exudate samples were sent out for cytokine analysis.

[2] = system: mouse acute lung injury plus hyperthermia model; experiment: Mouse acute lung injury plus hyperthermia model (Example 7); assay type: in vivo; details: LPS plus hyperthermia, CD-1 mice
Experimental: Lung lavage fluid was measured and cytokine analysis.

[3] = system: mouse peritoneum macrophages; experiment: LPS-stimulated mouse peritoneal macrophages, cytokine analysis (Example 5); assay type: cell-based, mice
Experimental: This example provides an in vivo study to determine the effect of DA on mouse peritoneum macrophages. Peritoneal exudates were obtained from Balb/c female mice by lavage 4 days after an intraperitoneal injection of 4 ml sterile 4% thioglycollate broth. After washing with RPMI 1640 medium, the cell suspensions were centrifuged at 800 g at 4° C. for 5 min. The red blood cells were eliminated by ACK buffer and the cells were washed and resuspended in RPMI 1640 supplemented with 10% inactivated FBS, 10 mM HEPES, 2 mM glutamine, and 100 U/ml penicillin-[…] streptomycin. The peritoneal macrophages were plated in 24 well tissue culture plate (2×10^5 cells/mL/well) at 37° C. in a 5% CO2 humidified atmosphere. Macrophages were precultured in serum-free RPMI 1640 medium for 24 h to reduce mitogenic effects. Macrophages were pretreated with various concentrations of DA for 1 h prior to LPS treatment and stimulated with LPS (100 ng/mL) for 24 h. Treatment groups were: [table]

[4] = 96.4 mg/kg BID gavage pre-treatment, LPS, vs vehicle
[5] = higher dose of DA, air pouch model, LPS

CC(=O)[O-].CC[N+](CC)(CC(=O)Nc1c(C)cccc1C)Cc1ccccc1 [DA, denatonium acetate]
Biomarker (cytokine) effects after iv dosing (healthy mouse; iv bolus QD, 1 mg/kg and 3 mg/kg (either iv dose)): no biomarker (cytokine) effects
Side effects by route of administration (healthy mouse; seen only with iv administration (1 and 3 mg/kg QD)): toxic side effects
IL-6 levels in air pouch exudates [1, 4]: significantly lower
Infiltrating cell count in air pouch exudates [1, 4]: significantly lower
IL-1b cytokine level [1, 5]: significant reduction
IL-10 cytokine level [1, 5]: significant reduction
IL-17 cytokine level [1, 5]: significant reduction
TNF-1a cytokine level [1, 5]: significant reduction
Infiltrating cell counts in air pouch exudates following LPS induction ([1]; pre-treatment by gavage BID, in a dose-dependent manner): decreased
Protein concentration in lung lavage fluid ([2]; iv bolus 3 mg/kg QD): drastic but not significantly reduced
Protein concentration in lung lavage fluid ([2]; oral 92.4 mg/kg BID): drastic but not significantly reduced
GM-CSF: Significance @24 hour LPS incubation ([3]; DA 1 μM): No sig
IFNγ: Significance @24 hour LPS incubation ([3]; DA 1 μM): No sig
IL-1α: Significance @24 hour LPS incubation ([3]; DA 1 μM): No sig
IL-1β: Significance @24 hour LPS incubation ([3]; DA 1 μM): No sig
IL-2: Significance @24 hour LPS incubation ([3]; DA 1 μM): No sig
IL-4: Significance @24 hour LPS incubation ([3]; DA 1 μM): No sig
IL-6: Significance @24 hour LPS incubation ([3]; DA 1 μM): No sig
IL-7: Significance @24 hour LPS incubation ([3]; DA 1 μM): No sig
IL-10: Significance @24 hour LPS incubation ([3]; DA 1 μM): No sig
IL-12 (p70): Significance @24 hour LPS incubation ([3]; DA 1 μM): No sig
IL-13: Significance @24 hour LPS incubation ([3]; DA 1 μM): No sig
IL-17A: Significance @24 hour LPS incubation ([3]; DA 1 μM): No sig
KC/CXCL1: Significance @24 hour LPS incubation ([3]; DA 1 μM): No sig
LIX: Significance @24 hour LPS incubation ([3]; DA 1 μM): No sig
MCP-1: Significance @24 hour LPS incubation ([3]; DA 1 μM): No sig
MIP-2: Significance @24 hour LPS incubation ([3]; DA 1 μM): No sig
TNF-α: Significance @24 hour LPS incubation ([3]; DA 1 μM): No sig
GM-CSF: Significance @24 hour LPS incubation ([3]; DA 10 μM): no sig
IFNγ: Significance @24 hour LPS incubation ([3]; DA 10 μM): no sig
IL-1α: Significance @24 hour LPS incubation ([3]; DA 10 μM): no sig
IL-1β: Significance @24 hour LPS incubation ([3]; DA 10 μM): no sig
IL-2: Significance @24 hour LPS incubation ([3]; DA 10 μM): no sig
IL-4: Significance @24 hour LPS incubation ([3]; DA 10 μM): no sig
IL-6: Significance @24 hour LPS incubation ([3]; DA 10 μM): no sig
IL-7: Significance @24 hour LPS incubation ([3]; DA 10 μM): no sig
IL-10: Significance @24 hour LPS incubation ([3]; DA 10 μM): no sig
IL-12 (p70): Significance @24 hour LPS incubation ([3]; DA 10 μM): no sig
IL-13: Significance @24 hour LPS incubation ([3]; DA 10 μM): no sig
IL-17A: Significance @24 hour LPS incubation ([3]; DA 10 μM): no sig
KC/CXCL1: Significance @24 hour LPS incubation ([3]; DA 10 μM): no sig
LIX: Significance @24 hour LPS incubation ([3]; DA 10 μM): no sig
MCP-1: Significance @24 hour LPS incubation ([3]; DA 10 μM): no sig
MIP-2: Significance @24 hour LPS incubation ([3]; DA 10 μM): no sig
TNF-α: Significance @24 hour LPS incubation ([3]; DA 10 μM): no sig
GM-CSF: Significance @24 hour LPS incubation ([3]; DA 100 μM): no sig
IFNγ: Significance @24 hour LPS incubation ([3]; DA 100 μM): no sig
IL-1α: Significance @24 hour LPS incubation ([3]; DA 100 μM): no sig
IL-1β: Significance @24 hour LPS incubation ([3]; DA 100 μM): no sig
IL-2: Significance @24 hour LPS incubation ([3]; DA 100 μM): no sig
IL-4: Significance @24 hour LPS incubation ([3]; DA 100 μM): no sig
IL-6: Significance @24 hour LPS incubation ([3]; DA 100 μM): no sig
IL-7: Significance @24 hour LPS incubation ([3]; DA 100 μM): no sig
IL-10: Significance @24 hour LPS incubation ([3]; DA 100 μM): no sig
IL-12 (p70): Significance @24 hour LPS incubation ([3]; DA 100 μM): no sig
IL-13: Significance @24 hour LPS incubation ([3]; DA 100 μM): no sig
IL-17A: Significance @24 hour LPS incubation ([3]; DA 100 μM): no sig
KC/CXCL1: Significance @24 hour LPS incubation ([3]; DA 100 μM): no sig
LIX: Significance @24 hour LPS incubation ([3]; DA 100 μM): no sig
MCP-1: Significance @24 hour LPS incubation ([3]; DA 100 μM): no sig
MIP-2: Significance @24 hour LPS incubation ([3]; DA 100 μM): no sig
TNF-α: Significance @24 hour LPS incubation ([3]; DA 100 μM): no sig

Source: patent publication US20230096528A1, “Pharmaceutical Composition for Treatment or Prevention of Multiple Inflammatory disorders” (priority 2019, published 2023)
